Assays:
Format in all cases: in vitro ADME
Settings in all cases: over a 60 minute period, compound remaining
[1] = Stability in rat plasma
Method: (§1) The stability of various compounds as disclosed herein was tested in human and rat and in simulated gastric fluid. Each compound was tested over an hour period for concentration of the compound remaining at each time point. The results are shown in FIGS. 3 (human plasma stability), 4 (rat plasma stability), and 5 (simulated gastric fluid stability) for the compounds of Example 2, 3, 4, and 20.

[2] = Stability in human plasma
Method: as §1

[3] = Stability in simulated gastric fluid
Method: as §1

CCC(=O)O[C@@H]([C@H](C)OC(=O)CC)[C@H]1CNc2nc(N)[nH]c(=O)c2N1C(=O)CC [Example 3, Propionic acid 1-(2-amino-4-oxo-5-propionyl-3,4,5,6,7,8-hexahydro-pteridin-6-yl)-2-Propionyloxy-propyl ester]
high level of stability: stability in rat plasma [1] | stability in human plasma [2] | stability in simulated gastric fluid [3]

CCCC(=O)O[C@@H]([C@H](C)OC(=O)CCC)[C@H]1CNc2nc(N)[nH]c(=O)c2N1C(=O)CCC [Example 4, Butyric acid 1-(2-amino-5-butyryl-4-oxo-3,4,5,6,7,8-hexahydro-pteridin-6-yl)-2-butyryloxy-propyl ester]
high level of stability: stability in rat plasma [1] | stability in human plasma [2] | stability in simulated gastric fluid [3]
